Values of other authors, collected in US20130281457A1, “PHARMACEUTICAL COMPOSITIONS COMPRISING 5-CHLORO-N-(-METHYL)-2-THIOPHENCARBOXAMID” (Ratiopharm GmbH, priority 2008, published 2013).

For `O=C(NC[C@H]1CN(c2ccc(N3CCOCC3=O)cc2)C(=O)O1)c1ccc(Cl)s1` [Compound I, 5-Chloro-N-({(5S)-2-oxo-3-[4-(3-oxo-4-morpholinyl)-phenyl]-1,3-oxazolidin-5-yl}-methyl)-2-thiophencarboxamid], the solubility in water is given as “only limited solubility in water”.
